Legend:
[1] = high permeability, low water solubility; cited from earlier work
[2] = format: physicochemical; conditions: binary system favipiravir-SC-CO2, from model
[3] = Solubility of favipiravir in supercritical CO2; format: physicochemical

SMILES: NC(=O)c1nc(F)c[nH]c1=O [Favipiravir]
- class in the Biopharmaceutics Classification System (BCS) [1]: class II
- total heat (ΔHtotal) [2]: 16.75 kcal/mol
- vaporization heat (ΔHvap) [2]: 21.54 kcal/mol
- y2 × 10^4 (Mole Fraction) ([3]; SC-CO2, 308 K, 12 MPa, density 768.42 kg/m^3): 0.53 mole fraction × 10^4
- y2 × 10^4 (Mole Fraction) ([3]; SC-CO2, 308 K, 15 MPa, density 816.06 kg/m^3): 0.87 mole fraction × 10^4
- y2 × 10^4 (Mole Fraction) ([3]; SC-CO2, 308 K, 18 MPa, density 848.87 kg/m^3): 1.44 mole fraction × 10^4
- y2 × 10^4 (Mole Fraction) ([3]; SC-CO2, 308 K, 21 MPa, density 874.40 kg/m^3): 2.31 mole fraction × 10^4
- y2 × 10^4 (Mole Fraction) ([3]; SC-CO2, 308 K, 24 MPa, density 895.54 kg/m^3): 3.42 mole fraction × 10^4
- y2 × 10^4 (Mole Fraction) ([3]; SC-CO2, 308 K, 27 MPa, density 913.69 kg/m^3): 4.09 mole fraction × 10^4
- y2 × 10^4 (Mole Fraction) ([3]; SC-CO2, 308 K, 30 MPa, density 929.68 kg/m^3): 5.13 mole fraction × 10^4
- y2 × 10^4 (Mole Fraction) ([3]; SC-CO2, 318 K, 12 MPa, density 659.73 kg/m^3): 0.37 mole fraction × 10^4
- y2 × 10^4 (Mole Fraction) ([3]; SC-CO2, 318 K, 15 MPa, density 743.17 kg/m^3): 0.80 mole fraction × 10^4
- y2 × 10^4 (Mole Fraction) ([3]; SC-CO2, 318 K, 18 MPa, density 790.18 kg/m^3): 1.30 mole fraction × 10^4
- y2 × 10^4 (Mole Fraction) ([3]; SC-CO2, 318 K, 21 MPa, density 823.70 kg/m^3): 2.72 mole fraction × 10^4
- y2 × 10^4 (Mole Fraction) ([3]; SC-CO2, 318 K, 24 MPa, density 850.10 kg/m^3): 4.29 mole fraction × 10^4
- y2 × 10^4 (Mole Fraction) ([3]; SC-CO2, 318 K, 27 MPa, density 872.04 kg/m^3): 5.41 mole fraction × 10^4
- y2 × 10^4 (Mole Fraction) ([3]; SC-CO2, 318 K, 30 MPa, density 890.92 kg/m^3): 6.48 mole fraction × 10^4
- y2 × 10^4 (Mole Fraction) ([3]; SC-CO2, 328 K, 12 MPa, density 506.85 kg/m^3): 0.08 mole fraction × 10^4
- y2 × 10^4 (Mole Fraction) ([3]; SC-CO2, 328 K, 15 MPa, density 654.94 kg/m^3): 0.60 mole fraction × 10^4
- y2 × 10^4 (Mole Fraction) ([3]; SC-CO2, 328 K, 18 MPa, density 724.13 kg/m^3): 1.39 mole fraction × 10^4
- y2 × 10^4 (Mole Fraction) ([3]; SC-CO2, 328 K, 21 MPa, density 768.74 kg/m^3): 3.21 mole fraction × 10^4
- y2 × 10^4 (Mole Fraction) ([3]; SC-CO2, 328 K, 24 MPa, density 801.92 kg/m^3): 4.75 mole fraction × 10^4
- y2 × 10^4 (Mole Fraction) ([3]; SC-CO2, 328 K, 27 MPa, density 828.51 kg/m^3): 6.58 mole fraction × 10^4
- y2 × 10^4 (Mole Fraction) ([3]; SC-CO2, 328 K, 30 MPa, density 850.83 kg/m^3): 7.65 mole fraction × 10^4
- y2 × 10^4 (Mole Fraction) ([3]; SC-CO2, 338 K, 12 MPa, density 384.17 kg/m^3): 0.03 mole fraction × 10^4
- y2 × 10^4 (Mole Fraction) ([3]; SC-CO2, 338 K, 15 MPa, density 555.23 kg/m^3): 0.37 mole fraction × 10^4
- y2 × 10^4 (Mole Fraction) ([3]; SC-CO2, 338 K, 18 MPa, density 651.18 kg/m^3): 1.32 mole fraction × 10^4
- y2 × 10^4 (Mole Fraction) ([3]; SC-CO2, 338 K, 21 MPa, density 709.69 kg/m^3): 3.92 mole fraction × 10^4
- y2 × 10^4 (Mole Fraction) ([3]; SC-CO2, 338 K, 24 MPa, density 751.17 kg/m^3): 5.6 mole fraction × 10^4
- y2 × 10^4 (Mole Fraction) ([3]; SC-CO2, 338 K, 27 MPa, density 783.29 kg/m^3): 7.57 mole fraction × 10^4
- y2 × 10^4 (Mole Fraction) ([3]; SC-CO2, 338 K, 30 MPa, density 809.58 kg/m^3): 9.05 mole fraction × 10^4

Reference: paper PMC8815272 (The Journal of Supercritical Fluids, 2022)
